Patent US9034898B2, “FGF receptor (FGFR) agonist dimeric compounds, process for the preparation thereof and therapeutic use thereof” (Sanofi, priority 2011, dated 2015)

Key:
[1] = tested on: human venous endothelial cells (HUVECs); assay: In vitro angiogenesis model (pseudotubule length of HUVECs on matrigel/collagen); assay type: cell-based; set-up: % activation with respect to FGF2 (in vitro): concentration or dose not given beside the values; conditions: for activity on the in vitro angiogenesis model: at a concentration of 1 nM, HUVECs, 24 hours; for EC50 / % activation with respect to FGF2 (in vitro): in vitro; for % activation with respect to FGF2 (in vitro): relative to FGF2
Procedure: In Vitro Angiogenesis Model
The products are tested for their ability to cause rearrangement of human venous endothelial cells (HUVECs) on matrigel (Becton dickinson 356230) diluted in collagen (rat tail collagen, type I: Becton dickinson 354236). After 24 hours, the cells are observed under a microscope with a X4 objective and the length of the pseudotubules is measured by means of an image analyser (BIOCOM-logiciel Visiolab 2000).
By way of example, compounds 1, 2, 3, 5 and 9 are active at a concentration of 1 nM on the in vitro angiogenesis model.

BalbC mice = assay: Sponge angiogenesis model (haemoglobin content of implanted cellulose sponge); assay type: in vivo; conditions: concentration of 300 μM injected into the sponge, eighth day after implantation
Description: Sponge Angiogenesis Model
The sponge angiogenesis model is an adaptation of the technique of Andrade et al [Andrade S P, Machado R., Teixeir A S, Belo A V, Tarso A M, Beraldo W T—Sponge-induced angiogenesis in mice and the pharmacological reactivity of the neovasculature quantitated by fluorimetric method, Microvascular Research, 1997, 54: 253-61.]
The mice used are BalbC females from Charles River Laboratory, 7 to 10 weeks old. The animals are anaesthetized by intraperitoneal injection of a xylazine/ketamine mixture ([…] in 0.9% NaCl). The animal's back is shaved and disinfected with hexomedine. A subcutaneous 5 ml pocket of air is made on the animal's back with sterile air. An incision is then made (approximately 1 cm) on the top of the animal's back in order to implant the sponge into the pocket. The biocompatible cellulose sponge (Cellspon, Interchim, 10 mm in diameter) was sterilized beforehand (autoclave 20 min at 120° C.) and is impregnated with 50 μl of sterile solution containing the test product. Suturing is performed by inserting two 9-mm stainless steel autoclip staples (Subra). The wound is again disinfected with hexomedine. […]
To assay the haemoglobin, 50 μl of each sample are deposited in a 96-well plate, in duplicate. […] The OD values are read on a spectrophotometer at 405 nm, using the Biolise software (Tecan, France). […]

Row | Structure (SMILES) | activity on the in vitro angiogenesis model [1] | EC50 [1] | % activation with respect to FGF2 (in vitro) [1] | EC50 ([1]; Homo sapiens, HUVEC) | activity on the in vivo angiogenesis model (BalbC mice)
1 | O=C(O)c1cc(-c2cc(C(=O)NCCCOCCOCCCNC(=O)c3cc(-c4ccc(F)c(C(=O)O)c4)nc4[nH]nc(-c5ccccc5)c34)c3c(-c4ccccc4)n[nH]c3n2)ccc1F [Compound 1, 3,3′-{ethane-1,2-diylbis[oxypropane-3,1-diylcarbamoyl(3-phenyl-1H-pyrazolo[3,4-b]pyridine-4,6-diyl)]}bis(6-fluorobenzoic acid)] | active | < 1 nM | 84% | – | –
2 | O=C(O)c1cc(-c2cc(C(=O)NCCCOCCOCCOCCCNC(=O)c3cc(-c4ccc(F)c(C(=O)O)c4)nc4[nH]nc(-c5ccccc5)c34)c3c(-c4ccccc4)n[nH]c3n2)ccc1F [Compound 2, 5-[4-({15-[6-(3-carboxy-4-fluorophenyl)-3-phenyl-1H-pyrazolo[3,4-b]pyridin-4-yl]-15-oxo-4,7,10-trioxa-14-azapentadec-1-yl}carbamoyl)-3-phenyl-1H-pyrazolo[3,4-b]pyridin-6-yl]-2-fluorobenzoic acid] | active | – | 84% | < 1 nM | active
3 | O=C(O)c1cc(-c2cc(C(=O)NCCOCCOCCOCCOCCNC(=O)c3cc(-c4ccc(F)c(C(=O)O)c4)nc4[nH]nc(-c5ccccc5)c34)c3c(-c4ccccc4)n[nH]c3n2)ccc1F [Compound 3, 5-[4-({16-[6-(3-carboxy-4-fluorophenyl)-3-phenyl-1H-pyrazolo[3,4-b]pyridin-4-yl]-16-oxo-3,6,9,12-tetraoxa-15-azahexadec-1-yl}carbamoyl)-3-phenyl-1H-pyrazolo[3,4-b]pyridin-6-yl]-2-fluorobenzoic acid] | active | – | 75% | < 1 nM | –
4 | O=C(O)c1cc(-c2cc(C(=O)NCCCOCCOCCOCCOCCOCCCNC(=O)c3cc(-c4ccc(F)c(C(=O)O)c4)nc4[nH]nc(-c5ccccc5)c34)c3c(-c4ccccc4)n[nH]c3n2)ccc1F [Compound 5, 5-[4-({21-[6-(3-carboxy-4-fluorophenyl)-3-phenyl-1H-pyrazolo[3,4-b]pyridin-4-yl]-21-oxo-4,7,10,13,16-pentaoxa-20-azahenicos-1-yl}carbamoyl)-3-phenyl-1H-pyrazolo[3,4-b]pyridin-6-yl]-2-fluorobenzoic acid] | active | – | 124% | < 1 nM | –
5 | NC(=O)c1cc(-c2ccc(F)c(C(=O)O)c2)nc2[nH]nc(-c3cccc(C(=O)NCCCOCCOCCOCCCNC(=O)c4cccc(-c5n[nH]c6nc(-c7ccc(F)c(C(=O)O)c7)cc(C(N)=O)c56)c4)c3)c12 [Compound 6, 5-(4-carbamoyl-3-{3-[(15-{3-[4-carbamoyl-6-(3-carboxy-4-fluorophenyl)-1H-pyrazolo[3,4-b]pyridin-3-yl]phenyl}-15-oxo-4,7,10-trioxa-14-azapentadec-1-yl)carbamoyl]phenyl}-1H-pyrazolo[3,4-b]pyridin-6-yl)-2-fluorobenzoic acid] | – | – | 50% | 3 nM | –
6 | NC(=O)c1cc(-c2ccc(F)c(C(=O)O)c2)nc2[nH]nc(-c3ccc(C(=O)NCCCOCCOCCOCCCNC(=O)c4ccc(-c5n[nH]c6nc(-c7ccc(F)c(C(=O)O)c7)cc(C(N)=O)c56)cc4)cc3)c12 [Compound 8, 5-(4-carbamoyl-3-{4-[(15-{4-[4-carbamoyl-6-(3-carboxy-4-fluorophenyl)-1H-pyrazolo[3,4-b]pyridin-3-yl]phenyl}-15-oxo-4,7,10-trioxa-14-azapentadec-1-yl)carbamoyl]phenyl}-1H-pyrazolo[3,4-b]pyridin-6-yl)-2-fluorobenzoic acid] | – | – | 20% | < 100 nM | –
7 | NC(=O)c1cc(-c2ccc(F)c(C(=O)O)c2)nc2[nH]nc(-c3ccc(C(=O)NCCOCCOCCNC(=O)c4ccc(-c5n[nH]c6nc(-c7ccc(F)c(C(=O)O)c7)cc(C(N)=O)c56)cc4)cc3)c12 [Compound 9, 3,3′-{ethane-1,2-diylbis[oxyethane-2,1-diylcarbamoylbenzene-4,1-diyl(4-carbamoyl-1H-pyrazolo[3,4-b]pyridine-3,6-diyl)]}bis(6-fluorobenzoic acid)] | active | < 1 nM | 60% | – | –
